Assay [1] deals with HeLa cells. As to the kind of experiment: Fluorescence microscopy and HCS staurosporine dose-response. As to conditions: 5 hours; for recognition of apoptotic cells, imaging: 5 μM Compound 1 or 9 or 4 μM CELLEVENT Green 3/7, 10 μM to 0 μM staurosporine, FIG. 9A-9C; for dose-response curve of dye fluorescence to staurosporine: 5 μM dye, 10 μM to 0 μM staurosporine, CX5 HCS, FIG. 9D. Format: cell-based. As to the method: The dye/staurosporine stock solution was diluted 1:10 onto HeLa cells in complete media for a final concentration starting at 5 μM Compound 1 or Compound 9, or 4 μM CELLEVENT Green 3/7 and 10 μM staurosporine and ending at 0 μM staurosporine. After a 5 hour incubation at 37° C., live cells were imaged using white light, DAPI and FITC filters. The cells were then fixed and stained with HCS […]™ Deep Red stain (Thermo Fisher Scientific, Waltham, Mass.) and quantified on a […]™ CX5 High Content Screening (HCS) Platform (Thermo Fisher Scientific, Waltham, Mass.).

The test system of assay [2] is Jurkat cells. As to the kind of experiment: Flow cytometry of Jurkat cells +/- 0.5 μM staurosporine, with SYTOX Dead Cell Stain. Type of assay: cell-based. As to conditions: Jurkat cells +/- 0.5 μM staurosporine 3.5 hours, 1 μM dye 30 min, FIG. 7A/7B. As to the method:
In yet another experiment, Jurkat cells were resuspended at 1×10^6 cells/ml in RPMI medium+10% FBS and aliquoted into 0.2 ml samples. The cells were treated with 0.5 μM Staurosporine (+STR) or without (−STR) for 3.5 hours at 37° C. […] 1 μl SYTOX™ Dead Cell Stain (Thermo Fisher Scientific, Waltham. Mass.) was added to the cells and incubated for at least 15 min. Cells were analyzed on an ATTUNE™ NXT flow cytometer as described above and were analyzed without washing.
On the technique in general: Flow cytometry measures light scatter and fluorescence of single cells or particles in a stream.

The next assay has as its system BPAEC cells. In words: Dye toxicity experiment, 48 hour incubation, imaging. As to conditions: 5 μM dye 48 hours, then 1 μM staurosporine overnight.
Assay [3] concerns Jurkat cells. In words: Flow cytometric detection of caspase activity and apoptosis, staurosporine dilution series. Type of assay: cell-based. As to the method:
Jurkat cells in log phase were resuspended in complete medium (RPMI-1640, supplemented with 10% Fetal Bovine Serum, 2 mM L-glutamine & 55 U/mL) and adjusted to a concentration of 2×10^6 cells per milliliter. 100 μl of cells were aliquoted in each well of a 96-well, V-bottom microplate so that 8 dilutions in triplicate were tested for each substrate.
Drug dilutions for treating cells were created by adding 1000 μL of complete medium containing 2 μM Staurosporine, 1:2 dilutions of this were added to 500 μL of complete medium, so that a series of 8 dilutions of Staurosporine were created.
100 μL of the media/Staurosporine mixtures were added to each well so that 3 wells of cells contained the highest dose, and then repeated for the next set of 3 wells.
Cells were incubated at 37° C., 5% CO2 in a standard cell culture incubator for 4 hours.
After the 4 hour incubation, each well had 1 μL of caspase substrate added so that the final concentration of the substrate was 2 μM of substrate in 200 μL of media. […]
At the end of the incubation, cells were analyzed using an ATTUNE® NXT Acoustic Focusing Cytometer (Thermo Fisher Scientific, Waltham. Mass.) using the 488 nm excitation and 530/30 nm emission filters to detect CELLEVENT™ Green, or the 405 nm excitation laser and the 440/50 nm emission filters to detect Compound 1. […]

In assay [4] the test system is Jurkat cells. As to the kind of experiment: Flow cytometry of Jurkat cells treated with 1 μM staurosporine for 1 hour, then Compound 1. Format: cell-based. As to conditions: for positive population, density plots: not shown. As to the method:
In another experiment, Jurkat cells treated with 1 μM Staurosporine for 1 hour (FIG. 5A) or untreated control cells (FIG. 5B) were then treated with Compound 1. Cells were then analyzed on an ATTUNE® NXT flow cytometer. The cells were oriented on a SSC/FSC plot to include both low and high side scatter cells, but to exclude debris and gated to exclude doublets (not shown).

The test system of assay [5] is HeLa cells. As to the kind of experiment: Fluorescence microscopy detection of caspase activity and apoptosis, nuclear intensity and Z'. Format: cell-based. As to conditions: 1 μM versus 1 nM staurosporine, 18 hour incubation, HCSStudio. The protocol: HeLa cells at a density of 7500 cells/well were incubated overnight in growth media (MEM+10% FBS. L-glutamine and Pen-Strep). Half of the plate was treated with 1 μM Staurosporine (FIG. 8B), while the other half was treated with 1 nM Staurosporine (FIG. 8A). After an 18 hour incubation (37° C., 5% CO2), all cells were incubated with SYT®82 (FIGS. 8A and 8B, left panels) and Compound 1 (FIGS. 8A and 8B, center panels). The average intensity of Compound 1 in the cellular nuclear region was calculated using HCSStudio (Compartmental Analysis Bioapplication), and a Z′ was determined (Z′=0.63).

Description for BPAEC cells: In another experiment to look at dye toxicity. BPAEC cells were incubated overnight in growth media (DMEM+10% FBS). […] After the 48 hour incubation, DMSO (control) or 1 μM staurosporine (final concentration) was added to a subset of the dye-treated cells and incubated overnight at 37° C.

`CC(=O)N[C@@H](CC(=O)O)C(=O)N[C@@H](CCC(=O)O)C(=O)N[C@H](C(=O)N[C@@H](CC(=O)O)C(=O)NCCCCCN(C)c1ccc(-c2nc3ccc(-c4nc5ccc(N6CCN(C)CC6)cc5[nH]4)cc3[nH]2)cc1)C(C)C` [Compound 9]: in the assay with HeLa cells [1], the “recognition of apoptotic cells, imaging” value was “recognize apoptotic cells” and the “dose-response curve of dye fluorescence to staurosporine” value was “good induction of apoptosis”. The “distinction of non-apoptotic from apoptotic cell populations” value in the assay with Jurkat cells [2] is “distinguished non-apoptotic from apoptotic cell populations”. Besides, the “detection of staurosporine-induced apoptotic cells after long incubation with dye” value in the assay with BPAEC cells is “able to detect the staurosporine-induced apoptotic cells”.
Consider `CC(=O)N[C@@H](CC(=O)O)C(=O)N[C@@H](CCC(=O)O)C(=O)N[C@H](C(=O)N[C@@H](CC(=O)O)C(=O)NCCN(C)c1ccc(-c2nc3ccc(-c4nc5ccc(N6CCN(C)CC6)cc5[nH]4)cc3[nH]2)cc1)C(C)C` [Compound 1], for which the “positive cells (percent positive of intact single cells)” value in the assay on Jurkat cells [3] (1 μM staurosporine 4 hours, 2 μM substrate 30 minutes, FIG. 4A/4B) was 84.9%. For the same compound, the “detection of apoptosis over the entire staurosporine concentration range, CELLEVENT Green 3/7 versus Compound 1” value in the assay with Jurkat cells [3] (8 staurosporine dilutions in triplicate, 2 μM substrate, FIG. 3) is “essentially no difference”. The “recognition of apoptotic cells, imaging” value in the assay with HeLa cells [1] is given as “recognize apoptotic cells”. Besides, in the assay with HeLa cells [1], the “dose-response curve of dye fluorescence to staurosporine” value is on record as “good induction of apoptosis”. Moreover, the “Compound 1 positive cells, histograms” value worked out at 3.49% in the assay with Jurkat cells [4] (Jurkat cells treated with 1 μM staurosporine for 1 hour, FIG. 5A) and 1.30% in the assay on Jurkat cells [4] (untreated control Jurkat cells (no staurosporine) stained with Compound 1, FIG. 5B). Moreover, the results for the “positive population, density plots” value in the assay on Jurkat cells [4] (Jurkat cells treated with 1 μM staurosporine for 1 hour) and in the assay on Jurkat cells [4] (untreated control Jurkat cells (no staurosporine) stained with Compound 1) were 3.55% and 1.32%, respectively. In the assay on BPAEC cells, the “detection of staurosporine-induced apoptotic cells after long incubation with dye” value was “able to detect the staurosporine-induced apoptotic cells”. Besides, the “Z' from average intensity of Compound 1 in the cellular nuclear region” value in the assay with HeLa cells [5] came to 0.63.

(Values after US10941435B2, “Methods and compositions for detecting or measuring caspases or apoptosis” (priority 2016, dated 2021).)
